Results as given in patent publication US20020173424A1, “Heterocyclyl-substituted benzoylcyclohexandiones, their preparation, and their use as herbicides” (priority 2000, published 2002).

What was measured:
Setaria species = assay: Comparative experiment, post-emergence action against Setaria species; assay type: in vivo; conditions: even at a lower application rate
Method: Seeds of monocotyledonous and dicotyledonous weeds are placed in sandy loam soil in cardboard pots, covered with soil and grown in the greenhouse under good growth conditions. Two to three weeks after sowing, the experimental plants are treated at the three-leaf stage. The compounds according to the invention, which are formulated as wettable powders or as emulsion concentrates, are sprayed at a rate of 1 kg of active substance or less per hectare (converted) onto the green plant organs at an application rate of 600 to 800 l of water per ha (converted). After the experimental plants have remained in the greenhouse for approx. 3 to 4 weeks under optimal growth conditions, the effect of the compositions is scored visually in comparison with untreated controls. The compounds according to the invention also have a good herbicidal action against a broad spectrum of economically important monocotyledonous and dicotyledonous harmful plants when applied post-emergence. A large number of compositions according to the invention have an outstanding herbicidal action against the harmful plants.
5. Comparative Experiments
Analogously to the experimental conditions mentioned under item 2 (post-emergence herbicidal action), compound No. 1.1 according to the invention was compared with a prior-art compound with regard to its effect against Setaria species.

melting point [°C] | SMILES | action against Setaria species compared with prior-art compound (Setaria species)
99 | CCS(=O)(=O)c1ccc(C(=O)C2C(=O)CCCC2=O)c(Cl)c1C1=NOC2OCCC12 (centres unmarked) [1.2, 2-[2-chloro-4-ethylsulfonyl-3-(3a,4,5,6a-tetrahydrofuro[3,2-d]isoxazol-3-yl)benzoyl]cyclohexane-1,3-dione] | 
 | CS(=O)(=O)c1ccc(C(=O)C2C(=O)CCCC2=O)c(Cl)c1C1=NOC2OCCC12 (centres unmarked) [1.1, 2-[2-chloro-4-methylsulfonyl-3-(3a,4,5,6a-tetrahydrofuro-[3,2-d]isoxazol-3-yl)benzoyl]cyclohexane-1,3-dione] | more potent action against Setaria species than the prior-art compound
